Measured values reported in patent US10023541B2, “Urea compounds and their use as enzyme inhibitors” (BIAL-PORTELA & CA, S.A., priority 2012, dated 2018).
Like-named read-outs stand apart in the source and are kept apart here.

Key:
[1] = target: T1, FAAH (Mus musculus, UniProt O08914); test: In vivo protocol: FAAH activity in tissue homogenates after oral dosing of mice; conditions: for Peripheral Selectivity: FAAH activity in liver divided by FAAH activity in brain, lower = more peripherally selective; for activity at 3 mg/kg / activity at 0.1 mg/kg / activity at 1 mg/kg / activity at 10 mg/kg: mouse
T1 construct: A fragment of liver, left lung lobe and brain without cerebellum were removed; from tissue; host or cells: mouse brain, liver and lung homogenates
T1 sequence (O08914 1-579): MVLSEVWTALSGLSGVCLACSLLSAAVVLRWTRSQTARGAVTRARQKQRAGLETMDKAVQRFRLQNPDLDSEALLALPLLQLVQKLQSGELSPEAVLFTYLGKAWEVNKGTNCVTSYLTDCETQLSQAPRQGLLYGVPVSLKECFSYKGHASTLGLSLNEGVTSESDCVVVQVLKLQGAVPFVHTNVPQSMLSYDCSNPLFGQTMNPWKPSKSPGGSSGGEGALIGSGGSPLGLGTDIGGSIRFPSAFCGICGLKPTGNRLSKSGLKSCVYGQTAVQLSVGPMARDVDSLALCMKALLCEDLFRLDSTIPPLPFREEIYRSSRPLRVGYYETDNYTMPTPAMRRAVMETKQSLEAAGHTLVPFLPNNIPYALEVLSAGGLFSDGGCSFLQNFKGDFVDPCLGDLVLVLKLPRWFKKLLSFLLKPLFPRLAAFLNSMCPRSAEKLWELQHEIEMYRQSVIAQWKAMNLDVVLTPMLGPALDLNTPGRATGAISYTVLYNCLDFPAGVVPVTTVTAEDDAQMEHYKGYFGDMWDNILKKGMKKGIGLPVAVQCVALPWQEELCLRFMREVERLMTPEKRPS
Experimental: In vivo testing was performed according to the protocol described below. BRh (brain homogenate) indicates inhibition in central nervous tissue, in this case, brain, and LVh (liver homogenate) indicates inhibition in peripheral tissue, in this case, liver. The controls were the reaction mix minus the test compounds. Therefore, a low value for the test compound indicates a strong inhibitor.
The animals used for experiments were male NMRI mice (weighing 27-44 g) obtained from Interfauna Ibérica (Spain). Mice were kept 5 per cage, under controlled environmental conditions (12 hr light/dark cycle and room temperature 221° C.). Food and tap water were allowed ad libitum and the experiments were all carried out during daylight hours.
[…] compounds via oral route (8 ml/kg; compound suspended in 0.5% carboxymethylcellulose (CMC) or solubilized in water) or vehicle (controls) using animal feeding stainless steel curve needles (Perfectum, U.S.A.). Fifteen minutes before sacrifice animal were anesthetized with pentobarbital 60 mg/kg administered intraperitoneally. A fragment of liver, left lung lobe and brain without cerebellum were removed and put in plastic vials containing membrane buffer (3 mM MgCl2, 1 mM EDTA, 50 mM Tris HCl pH 7.4). Tissues were stored at −30° C. until analysis.
Animals were always fasted overnight before administration of compounds except for time points of >18 h, where food was removed on the morning of day of administration and the compound was administered in the afternoon of the same day. Animals were then given water but nothing else.
Tissues were thawed on ice and were homogenized in 10 volumes of membrane buffer (3 mM MgCl2, 1 mM EDTA, 50 mM Tris HCl pH 7.4) with either Potter-Elvejhem (brains—8 strokes at 500 rpm) or Heidolph Diax (livers—2 strokes at position 5 for 20 sec with 30 sec pauses).
Total protein in tissues was determined with the BioRad Protein Assay (BioRad) using a standard curve of BSA (50-250 μg/ml).
Reaction mix (total volume of 200 μl) contained: 2 μM AEA (2 μM AEA+5 nM ^3H-AEA), 0.1% fatty acid free BSA, 15 μg (brain), 5 μg (liver) or 50 μg (lung) protein, in 1 mM EDTA, 10 mM Tris pH 7.6. After a 15 min pre-incubation period at 37° C. reaction was started by the addition of the substrate solution (cold AEA+radiolabelled AEA+BSA). Reaction was carried out for 10 min (brain and lung) or 7 min (liver) before termination by the addition of 400 μl activated charcoal suspension (8 g charcoal in 32 ml 0.5 M HCl in continuous agitation). After a 30 min incubation period at room temperature with agitation, charcoal was sedimented by centrifugation in microfuge (10 min at 13000 rpm). 200 μl of the supernatant were added to 800 μl Optiphase Supermix scintillation cocktail previously distributed in 24-well plates. Counts per minute (cpm) were determined in a MicrobetaTriLux scintillation counter.
In each assay blanks (without protein) were prepared.
The percentage of remaining enzymatic activity was calculated with respect to controls and after blank subtraction.

[2] = target: T1, FAAH; test: ED50 determination of FAAH inhibition in liver after p.o. administration; type: in vivo; conditions: po, read-out: Liver ED50 (95CI)
From the text: Confidence intervals (95%) are included.

[3] = CYPs metabolic stability assay in MLM; type: in vitro ADME, mouse; conditions: 1 h, 50 μM; for Metabolic Stability (% of Remaining) Mouse CYP+: with NADPH; for Metabolic Stability (% of Remaining) Mouse CYP−: without NADPH
Experimental: (§1) Stability of the test compounds was performed in MLM (mouse liver microsomes) or HLM (human liver microsomes) in the presence and in the absence of NADPH.
(§2) The stability was measured using the incubation mixture (100 μl total volume) contained 1 mg/ml total protein, MgCl2 5 mM and 50 mM K-phosphate buffer. Samples were incubated in the presence and in the absence of NADPH 1 mM. Reactions were pre-incubated 5 min and the reaction initiated with the compound under test (5 μM for HLM and 50 μM for MLM). Samples were incubated for 60 min in a shaking water bath at 37° C. The reaction was stopped by adding 100 μl of acetonitrile. Samples were then centrifuged, filtered and supernatant injected in HLPC-MSD. Test compounds were dissolved in DMSO and the final concentration of DMSO in the reaction was below 0.5% (v/v). At TO acetonitrile was added before adding the compound. All experiments were performed with samples in duplicate.
(§3) The stability data are given as % of remaining compound after 1 h exposure to MLM or HLM. 100% means no metabolic reaction at all and 0% corresponds to full enzymatic degradation. “CYP−” refers to the absence of cofactor (NADPH) which is essential for CYP metabolic reactions. Therefore “CYP−” can be regarded as control value. “CYP+” refers to the presence of cofactor and the enzymatic degradation may take place according to the stability of the test compound.

[4] = CYPs metabolic stability assay in HLM; type: in vitro ADME, human; conditions: 1 h, 5 μM; for Metabolic Stability (% of Remaining) Human CYP+: with NADPH; for Metabolic Stability (% of Remaining) Human CYP−: without NADPH
Experimental: as §1, §2, §3

[5] = target: T2, FAAH (Rattus norvegicus, UniProt P97612); test: Determination of IC50 in rat brain membrane FAAH enzymatic assay (3H-AEA); type: biochemical; conditions: rat brain membranes, 2 μM AEA, 15 min preincubation
T2 construct: Frozen brains from 4 Wistar rats were homogenized; from tissue; host or cells: Wistar rat brain membranes
T2 sequence (P97612 1-579): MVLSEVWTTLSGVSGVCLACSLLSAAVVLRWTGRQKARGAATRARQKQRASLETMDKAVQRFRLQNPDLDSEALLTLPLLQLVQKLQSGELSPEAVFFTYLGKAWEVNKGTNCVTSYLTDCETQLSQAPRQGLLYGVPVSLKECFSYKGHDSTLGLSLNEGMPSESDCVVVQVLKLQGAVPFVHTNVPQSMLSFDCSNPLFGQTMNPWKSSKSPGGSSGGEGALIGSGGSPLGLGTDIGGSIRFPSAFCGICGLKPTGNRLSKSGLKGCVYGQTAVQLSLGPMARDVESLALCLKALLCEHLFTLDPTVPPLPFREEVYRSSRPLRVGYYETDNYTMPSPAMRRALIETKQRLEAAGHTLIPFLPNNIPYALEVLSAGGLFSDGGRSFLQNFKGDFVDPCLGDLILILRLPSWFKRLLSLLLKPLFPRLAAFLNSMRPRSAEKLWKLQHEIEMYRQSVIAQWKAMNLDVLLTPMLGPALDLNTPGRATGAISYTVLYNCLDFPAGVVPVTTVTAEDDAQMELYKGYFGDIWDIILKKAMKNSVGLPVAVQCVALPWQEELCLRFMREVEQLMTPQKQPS
Experimental: Anandamide[ethanolamine-1-^3H-] was obtained from American Radiochemicals—with a specific activity of 60 Ci/mmol. All other reagents were obtained from Sigma-Aldrich. Optiphase Supermix was obtained from Perkin Elmer and activated charcoal was obtained from Sigma.
Frozen brains from 4 Wistar rats were homogenized in 20 ml 1 mM MgCl2, 20 mM HEPES (4-(2-hydroxyethyl)-1-piperazineethanesulfonic acid) pH 7.0 with Potter-Elvejhem (8 strokes at 500 rpm). Homogenates were centrifuged for 20 min at 36000 g at 4° C. (Beckman, 70Ti rotor). Pellets were resuspended in 15 ml of the same buffer and centrifuged under the same conditions. Pellets were resuspended in 15 ml of the same buffer and incubated for 15 min at 37° C. after which they were centrifuged for 20 min at 36000 g at 4° C. Each pellet was then resuspended in 10 ml 3 mM MgCl2, 1 mM EDTA (Ethylenediaminetetraacetic acid), 50 mM Tris (2-Amino-2-hydroxymethyl-propane-1,3-diol) pH 7.4 and protein determined with the BioRad Protein Assay (BioRad) using a standard curve of BSA (Bovine Serum Albumin) (50-250 μg/ml).
Reaction mix (total volume of 200 μl) contained: 2 μM AEA (2 μM AEA+5 nM ^3H-AEA), 0.1% fatty acid free BSA, 5 or 10 μg protein, in 1 mM EDTA, 10 mM Tris pH 7.6 and compound 1 at various concentrations. […] Counts per minute (CPM) or disintegrations per minute (DPM) were determined in a MicrobetaTriLux scintillation counter. […]

[6] = po, brain homogenate, 3 mg/kg po, 8 h, % remaining activity vs control, read-out: FAAH Activity (%) Br. h. 3 mg/kg. 8 h. po
[7] = po, liver homogenate, 3 mg/kg po, 8 h, % remaining activity vs control, read-out: FAAH Activity (%) Lv. h. 3 mg/kg. 8 h. po
[8] = 1 h, 3 mg/kg, read-out: FAAH Activity (%) mouse Liver
[9] = 8 h, 0.1 mg/kg, read-out: FAAH Activity (%) mouse Liver
[10] = 8 h, read-out: FAAH Activity (%) mouse Liver
[11] = 8 h, 3 mg/kg, read-out: FAAH Activity (%) mouse Liver

Structure (SMILES) | Peripheral Selectivity ([1]; 3 mg/kg po, 8 h) | activity at 3 mg/kg [1, 6] [%] | activity at 3 mg/kg [1, 7] [%] | ED50 ([2]; Time 8 h) [mg/kg] | Metabolic Stability (% of Remaining) Mouse CYP+ [3] [%] | Metabolic Stability (% of Remaining) Mouse CYP− [3] [%] | Metabolic Stability (% of Remaining) Human CYP+ [4] [%] | Metabolic Stability (% of Remaining) Human CYP− [4] [%] | activity at 3 mg/kg [1, 8] [%] | activity at 0.1 mg/kg [1, 9] [%] | activity at 1 mg/kg [1, 10] [%] | activity at 3 mg/kg [1, 11] [%] | activity at 10 mg/kg [1, 10] [%] | ED50 [2] [mg/kg] | IC50 [5] [nM] | factor by which most peripherally selective compound ([1]; compared with comparator compounds, 3 mg/kg po, 8 h) | fold more potent than comparator compound 2 ([1]; mouse liver, 0.1 mg/kg, 8 h post-dose)
CN(C(=O)n1cnc(-c2cccc(NC(=N)N)c2)c1)C1CCCCC1 [Comparator Compound 1, N-cyclohexyl-4-(3-guanidinophenyl)-N-methyl-1H-imidazole-1-carboxamide] | 0.235 | 86.2 | 20.3 | – | – | – | – | – | – | – | – | – | – | – | – | – | –
CN(C(=O)n1cnc(-c2ccc(F)c(O)c2)c1)C1CCCC1 [Comparator Compound 2, N-cyclopentyl-4-(4-fluoro-3-hydroxyphenyl)-N-methyl-1H-imidazole-1-carboxamide] | 0.017 | 121 | 2.1 | 0.17 | 53 | 92 | 70 | 92 | 17 | 73.8 | 4.9 | 2.1 | 1.2 | – | – | – | –
CN(C(=O)n1cnc(-c2cccc(NC(N)=O)c2)c1)C1CCCC1 [Compound 1, N-Cyclopentyl-N-methyl-4-(3-ureidophenyl)-1H-imidazole-1-carboxamide] | 0.008 | 85.1 | 0.7 | – | 96 | 95 | 82 | 99 | 1.9 | 6.4 | 1.6 | 0.7 | 0.4 | 0.03 | 27 | > 2 | more than 10 fold
